Source: ChEMBL document CHEMBL2380271, “Synthesis and biological evaluation of a class of quinolone triazoles as potential antimicrobial agents and their interactions with calf thymus DNA” (2013)
Values after ≈ are worked out from the molar mass of the structure shown. Active and inactive are the calls of the source. The calls are words filed in the database; no cut-off is given here.

Assays:
Shigella dysenteriae = test: Antibacterial activity against Shigella dysenteriae by NCCLS method; assay type: functional
Candida albicans = test: Antifungal activity against Candida albicans by NCCLS method; assay type: functional
Escherichia coli = test: Antibacterial activity against Escherichia coli DH52 by NCCLS method; assay type: functional
Salmonella typhi = test: Antibacterial activity against Eberthella typhosa by NCCLS method; assay type: functional, Salmonella enterica subsp. enterica serovar Typhi; conditions: Salmonella enterica
Staphylococcus aureus [1] = test: Antibacterial activity against Staphylococcus aureus ATCC 25923 by NCCLS method; assay type: functional
Staphylococcus aureus [2] = test: Ratio of norfloxacin MIC to compound MIC for methicillin-resistant Staphylococcus aureus N315; assay type: functional
Pseudomonas aeruginosa = test: Antibacterial activity against Pseudomonas aeruginosa by NCCLS method; assay type: functional
Aspergillus flavus [3] = test: Antifungal activity against Aspergillus flavus by NCCLS method; assay type: functional
Micrococcus luteus = test: Antibacterial activity against Micrococcus luteus ATCC 4698 by NCCLS method; assay type: functional
Saccharomyces cerevisiae = test: Antifungal activity against Saccharomyces cerevisiae by NCCLS method; assay type: functional
Cyberlindnera jadinii = test: Antifungal activity against Candida utilis by NCCLS method; assay type: functional; conditions: Williopsis jadinii
Staphylococcus aureus [4] = test: Ratio of chloromycin MIC to compound MIC for methicillin-resistant Staphylococcus aureus N315; assay type: functional
Staphylococcus aureus [5] = test: Antibacterial activity against methicillin-resistant Staphylococcus aureus N315 by NCCLS method; assay type: functional
Aspergillus flavus [6] = test: Ratio of Fluconazole MIC to compound MIC for Aspergillus flavus; assay type: functional
DNA [7] = test: Binding affinity to calf thymus DNA-NR complex assessed as increase in fluorescence intensity at 726 nm wavelength; assay type: nucleic-acid assay; conditions: Bos taurus
DNA [8] = test: Competitive binding affinity to calf thymus DNA by UV-vis spectroscopic analysis in presence of neutral red; assay type: nucleic-acid assay; conditions: Bos taurus
DNA [9] = test: Binding affinity to calf thymus DNA-NR complex assessed as decrease in fluorescence intensity at 640 nm wavelength; assay type: nucleic-acid assay; conditions: Bos taurus
DNA [10] = test: Binding affinity to calf thymus DNA assessed as blue shift by UV-vis spectroscopic analysis; assay type: nucleic-acid assay; conditions: Bos taurus
DNA [11] = test: Binding affinity to calf thymus DNA by fluorescence quenching assay in presence of potassium iodide; assay type: nucleic-acid assay; conditions: Bos taurus
DNA [12] = test: Binding affinity to calf thymus DNA at 0.5 to 3x10'-5 mol/L by fluorescence quenching assay; assay type: nucleic-acid assay; conditions: Bos taurus

| SMILES | MIC (Shigella dysenteriae) [µg/mL] | MIC (Candida albicans) [µg/mL] | MIC (Escherichia coli) [µg/mL] | MIC (Salmonella typhi) [µg/mL] | MIC (Staphylococcus aureus [1]) [µg/mL] | Ratio (Staphylococcus aureus [2]) | MIC (Pseudomonas aeruginosa) [µg/mL] | MIC (Aspergillus flavus [3]) [µg/mL] | MIC (Micrococcus luteus) [µg/mL] | MIC (Saccharomyces cerevisiae) [µg/mL] | MIC (Cyberlindnera jadinii) [µg/mL] | Ratio (Staphylococcus aureus [4]) | MIC (Staphylococcus aureus [5]) [µg/mL] | Ratio (Aspergillus flavus [6]) | Activity (DNA [7]) | Activity (DNA [8]) | Activity (DNA [9]) | K (DNA [10]) [×10³ L/mol] | KSV (DNA [11]) [L/mol] | Activity (DNA [12]) |
| --- | --- | --- | --- | --- | --- | --- | --- | --- | --- | --- | --- | --- | --- | --- | --- | --- | --- | --- | --- | --- |
| O=C(O)c1cn(CC(O)Cn2cncn2)c2ccc(F)cc2c1=O (stereo not given) | 0.5 (≈ 1.5 µM) | 64 (≈ 193 µM) | 32 (≈ 96.3 µM) | 1 (≈ 3.01 µM) | 128 (≈ 385 µM) | 8 | 8 (≈ 24.1 µM) | 512 (≈ 1540 µM) | 32 (≈ 96.3 µM) | 512 (≈ 1540 µM) | > 512 | 16 | 1 (≈ 3.01 µM) |  |  |  |  |  |  |  |
| O=C(O)c1cn(CC(O)Cn2cncn2)c2c(Cl)cc(Cl)cc2c1=O (stereo not given) | 4 (≈ 10.4 µM) | 32 (≈ 83.5 µM) | 64 (≈ 167 µM) | 16 (≈ 41.8 µM) | 64 (≈ 167 µM) |  | 8 (≈ 20.9 µM) | 256 (≈ 668 µM) | 64 (≈ 167 µM) | 128 (≈ 334 µM) | > 512 |  | 4 (≈ 10.4 µM) |  |  |  |  |  |  |  |
| CCn1cc(C(=O)O)c(=O)c2cc(F)c(N3CCNCC3)cc21 [NORFLOXACIN] | 4 (≈ 12.5 µM) | > 512 | 16 (≈ 50.1 µM) | 4 (≈ 12.5 µM) | 0.5 (≈ 1.57 µM) |  | 1 (≈ 3.13 µM) | > 512 | 2 (≈ 6.26 µM) | > 512 | > 512 |  | 8 (≈ 25.1 µM) |  |  |  |  |  |  |  |
| CCOC(=O)c1cn(CC(O)Cn2cncn2)c2cc(C(F)(F)F)ccc2c1=O (racemic) | 32 (≈ 78 µM) | 64 (≈ 156 µM) | 32 (≈ 78 µM) | 0.5 (≈ 1.22 µM) | 16 (≈ 39 µM) |  | 1 (≈ 2.44 µM) | 8 (≈ 19.5 µM) | 2 (≈ 4.87 µM) | 64 (≈ 156 µM) | 128 (≈ 312 µM) |  | 32 (≈ 78 µM) |  |  |  |  |  |  |  |
| O=C(O)c1cn(CC(O)Cn2cncn2)c2cc(Cl)c(F)cc2c1=O (stereo not given) | 64 (≈ 175 µM) | 16 (≈ 43.6 µM) | 8 (≈ 21.8 µM) | 4 (≈ 10.9 µM) | 64 (≈ 175 µM) |  | 2 (≈ 5.45 µM) | 128 (≈ 349 µM) | 16 (≈ 43.6 µM) | 256 (≈ 698 µM) | > 512 |  | 64 (≈ 175 µM) |  |  |  |  |  |  |  |
| CCOC(=O)c1cn(CC(O)Cn2cncn2)c2c(F)cc(F)cc2c1=O (racemic) | 32 (≈ 84.6 µM) | 64 (≈ 169 µM) | 8 (≈ 21.1 µM) | 0.5 (≈ 1.32 µM) | 1 (≈ 2.64 µM) |  | 4 (≈ 10.6 µM) | 64 (≈ 169 µM) | 2 (≈ 5.29 µM) | 512 (≈ 1350 µM) | > 512 |  | 32 (≈ 84.6 µM) |  |  |  |  |  |  |  |
| CCOC(=O)c1cn(CC(O)Cn2cncn2)c2cc(Cl)c(F)cc2c1=O (racemic) | 32 (≈ 81.1 µM) | 8 (≈ 20.3 µM) | 32 (≈ 81.1 µM) | 1 (≈ 2.53 µM) | 64 (≈ 162 µM) |  | 4 (≈ 10.1 µM) | 16 (≈ 40.5 µM) | 4 (≈ 10.1 µM) | 512 (≈ 1300 µM) | > 512 |  | 4 (≈ 10.1 µM) |  |  |  |  |  |  |  |
| CCOC(=O)c1cn(CC2CO2)c2cc(C(F)(F)F)ccc2c1=O (racemic) | 256 (≈ 750 µM) | 4 (≈ 11.7 µM) | 64 (≈ 188 µM) | 2 (≈ 5.86 µM) | 256 (≈ 750 µM) | 16 | 64 (≈ 188 µM) | 0.5 (≈ 1.47 µM) | 128 (≈ 375 µM) | 8 (≈ 23.4 µM) | > 512 | 32 | 0.5 (≈ 1.47 µM) | 256 |  |  |  |  |  |  |
| CCOC(=O)c1cn(CC2CO2)c2c(F)cc(F)cc2c1=O (racemic) | > 512 | 4 (≈ 12.9 µM) | 128 (≈ 414 µM) | 2 (≈ 6.47 µM) | 16 (≈ 51.7 µM) |  | 64 (≈ 207 µM) | 1 (≈ 3.23 µM) | 2 (≈ 6.47 µM) | 64 (≈ 207 µM) | > 512 |  | 8 (≈ 25.9 µM) | 256 |  |  |  |  |  |  |
| CCOC(=O)c1cn(CC2CO2)c2ccc(F)cc2c1=O (racemic) | 64 (≈ 220 µM) | 16 (≈ 54.9 µM) | 64 (≈ 220 µM) | 8 (≈ 27.5 µM) | 32 (≈ 110 µM) |  | 128 (≈ 439 µM) | 1 (≈ 3.43 µM) | 512 (≈ 1760 µM) | 2 (≈ 6.87 µM) | 256 (≈ 879 µM) |  | 4 (≈ 13.7 µM) | 256 |  |  |  |  |  |  |
| CCOC(=O)c1cn(CC(O)Cn2cncn2)c2c(F)cccc2c1=O (racemic) | 8 (≈ 22.2 µM) | 32 (≈ 88.8 µM) | 8 (≈ 22.2 µM) | 0.5 (≈ 1.39 µM) | 64 (≈ 178 µM) |  | 32 (≈ 88.8 µM) | 512 (≈ 1420 µM) | 2 (≈ 5.55 µM) | 32 (≈ 88.8 µM) | > 512 |  | 128 (≈ 355 µM) |  |  |  |  |  |  |  |
| Cc1ccc2c(c1)c(=O)c(C(=O)O)cn2CC(O)Cn1cncn1 (stereo not given) | 32 (≈ 97.5 µM) | 2 (≈ 6.09 µM) | 32 (≈ 97.5 µM) | 8 (≈ 24.4 µM) | 32 (≈ 97.5 µM) |  | 16 (≈ 48.7 µM) | 0.5 (≈ 1.52 µM) | 16 (≈ 48.7 µM) | 4 (≈ 12.2 µM) | > 512 |  | 8 (≈ 24.4 µM) |  | Active | Active | Active | 1.43 | 6.53 | Active |
